From patent publication US20210380556A1, “HETEROARYLAZOLE COMPOUND AND PEST CONTROL AGENT” (Nippon Soda Co., Ltd., priority 2018, published 2021)

Experiments:
Mythimna separata = experiment: Test Example 1: efficacy on Mythimna separata (treated artificial feed); format: in vivo; details: 1 μl of emulsion (I) (5% active ingredient) in 0.8 g artificial feed; second instar larvae; 25° C.; fifth day
Excerpt: (§1) 5 parts of the heteroaryl azole compound of the present invention, 93.6 parts of dimethylformamide, and 1.4 parts of polyoxyethylene alkyl aryl ether were mixed and dissolved to prepare emulsion (I) containing 5% of the active ingredient.
For a control, 98.5 parts of dimethylformamide and 1.5 parts of polyoxyethylene alkyl aryl ether were mixed and dissolved to prepare emulsion (II).
(§2) Insecticidal rate (%)=(The number of dead insects/The number of tested insects)×100
0.8 g of commercially available artificial feed (Insecta LFS, manufactured by Nosan Corp.) and 1 μl of the emulsion (I) were well mixed to obtain test feed.
A plastic test container (capacity: 1.4 ml) was packed with 0.2 g of the test feed per treatment plot. Then, two second instar larvae of Mythimna separata were inoculated to each treatment plot. A plastic lid was put on the test container so as to prevent escape of the second instar larvae of Mythimna separata. The container was placed in a thermostat chamber of 25° C. On the fifth day, the insecticidal rate and the food intake were examined. The test was conducted in duplicate.
The insecticidal rate and the food intake of a control plot were examined in the same way as in Test Example 1 except that the emulsion (I) was changed to the emulsion (II).

Plutella xylostella = experiment: Test Example 3: efficacy on Plutella xylostella (cabbage leaf dip); format: in vivo; details: foliar, 72 h, cabbage leaves dipped 30 seconds, second instar larvae, after 3 days, read-out: insecticidal rate
Protocol: as §1, §2
The emulsion (I) was diluted with water such that the concentration of the compound of the present invention was 125 ppm. Cabbage leaves were dipped in the dilution for 30 seconds. The resulting cabbage leaves were placed in a petri dish. Five second instar larvae of Plutella xylostella were released thereto. The petri dish was placed in a thermostat chamber having a temperature of 25° C. and a humidity of 60%. Life and death were determined after 3 days from the release of the insects, and the insecticidal rate was calculated. The test was conducted in duplicate.

Musca domestica = experiment: Test Example 9: efficacy on Musca domestica (treated sugar cube); format: in vivo; details: 100 ppm per g of a cube of sugar; female adults; 25° C.; after hours (number not given)
Protocol: as §2
The compound of the present invention was diluted with acetone and added dropwise at 100 ppm per g of a cube of sugar. The cube of sugar was placed in a plastic cup. Ten female adults of Musca domestica were released, and a lid was put on the plastic cup. The plastic cup was stored at 25° C. Life and death were determined after hours from the release of the insects, and the insecticidal rate was calculated. The test was conducted in duplicate.

With `CCS(=O)(=O)c1cnc(-n2cnc(N)n2)nc1-c1ncc(C(F)(F)C(F)(F)C(F)(F)C(F)(F)F)n1C` the melting point was 219 to 221 °C.
For `CCS(=O)(=O)c1cc(Br)cnc1-c1nnc(C(F)(F)C(F)(F)C(F)(F)C(F)(F)F)n1C`, the melting point was 74 to 76 °C.
With `CCS(=O)(=O)c1cnc(-c2ncn(C)n2)nc1-c1ncc(C(F)(F)C(F)(F)C(F)(F)F)n1C` [a-1] the “insecticidal rate or food intake as compared with the control plot” value (Mythimna separata) was “insecticidal rate of 100% for Mythimna separata or a food intake of 10% or less” and the pest or weed control at 125 ppm (Plutella xylostella) was no less than 80%.
For `CCS(=O)(=O)c1cnc(-c2ncn(C)n2)nc1-c1ncc(C(F)(F)C(F)(F)C(F)(F)C(F)(F)F)n1C` [a-2, 5-(ethylsulfonyl)-2-(1-methyl-1H-1,2,4-triazol-3-yl)-4-(1-methyl-5-(perfluorobutyl)-1H-imidazol-2-yl)pyrimidine], the “insecticidal rate or food intake as compared with the control plot” value (Mythimna separata) was “insecticidal rate of 100% for Mythimna separata or a food intake of 10% or less” and the pest or weed control at 125 ppm (Plutella xylostella) was no less than 80%.
Work on `CCS(=O)(=O)c1cnc(-c2ncccn2)nc1-c1ncc(C(F)(F)C(F)(F)C(F)(F)C(F)(F)F)n1C` [a-4] yielded a pest or weed control at 125 ppm (Plutella xylostella) of no less than 80%.
In the case of `CCS(=O)(=O)c1cnc(-n2ncnc2N)nc1-c1ncc(C(F)(F)C(F)(F)C(F)(F)C(F)(F)F)n1C` [a-6], the “insecticidal rate or food intake as compared with the control plot” value (Mythimna separata) is reported as “insecticidal rate of 100% for Mythimna separata or a food intake of 10% or less” and the pest or weed control at 125 ppm (Plutella xylostella) is reported as no less than 80%.
`CCS(=O)(=O)c1cnc(-c2ncnn2C)nc1-c1ncc(C(F)(F)C(F)(F)C(F)(F)C(F)(F)F)n1C` [a-10] gave a pest or weed control at 125 ppm (Plutella xylostella) of no less than 80%.
For `CCS(=O)(=O)c1cc(-c2ncccn2)cnc1-c1ncc(C(F)(F)C(F)(F)C(F)(F)C(F)(F)F)n1C` [b-4], the “insecticidal rate or food intake as compared with the control plot” value (Mythimna separata) was “insecticidal rate of 100% for Mythimna separata or a food intake of 10% or less” and the insecticidal rate (Musca domestica) was no less than 80%.
In the case of `CCS(=O)(=O)c1cc(-c2ncccn2)cnc1-c1ncc(C(F)(F)C(F)(F)C(F)(F)F)n1C` [b-19, 2-(5-(ethylsulfonyl)-6-(1-methyl-5-(perfluoropropyl)-1H-imidazol-2-yl)pyridin-3-yl)pyrimidine], the pest or weed control at 125 ppm (Plutella xylostella) is reported as no less than 80%.
For `CCS(=O)(=O)c1cc(-c2ncccc2F)cnc1-c1ncc(C(F)(F)C(F)(F)C(F)(F)C(F)(F)F)n1C` [b-61], the “insecticidal rate or food intake as compared with the control plot” value (Mythimna separata) was “insecticidal rate of 100% for Mythimna separata or a food intake of 10% or less”.
For `CCS(=O)(=O)c1cc(-c2ncccc2Cl)cnc1-c1ncc(C(F)(F)C(F)(F)C(F)(F)F)n1C` [b-62], the “insecticidal rate or food intake as compared with the control plot” value (Mythimna separata) was “insecticidal rate of 100% for Mythimna separata or a food intake of 10% or less”.
With `CCS(=O)(=O)c1cc(C2CC2)cnc1-c1ncc(C(F)C(F)(F)C(F)(F)C(F)(F)C(F)(F)F)n1C` (centres unmarked) [b-63] the “insecticidal rate or food intake as compared with the control plot” value (Mythimna separata) was “insecticidal rate of 100% for Mythimna separata or a food intake of 10% or less”.
With `CCS(=O)(=O)c1cc(-c2ncccn2)cnc1-c1ncc(C(F)C(F)(F)C(F)(F)C(F)(F)C(F)(F)F)n1C` (centres unmarked) [b-64] the “insecticidal rate or food intake as compared with the control plot” value (Mythimna separata) was “insecticidal rate of 100% for Mythimna separata or a food intake of 10% or less”.
With `CCS(=O)(=O)c1cc(-c2ccccn2)cnc1-c1ncc(C(F)C(F)(F)C(F)(F)C(F)(F)C(F)(F)F)n1C` (centres unmarked) [b-66] the “insecticidal rate or food intake as compared with the control plot” value (Mythimna separata) was “insecticidal rate of 100% for Mythimna separata or a food intake of 10% or less”.
With `CCS(=O)(=O)c1cc(OCC(F)(F)C(F)(F)F)cnc1-c1ncc(C(F)C(F)(C(F)(F)F)C(F)(F)F)n1C` (centres unmarked) [b-68] the “insecticidal rate or food intake as compared with the control plot” value (Mythimna separata) was “insecticidal rate of 100% for Mythimna separata or a food intake of 10% or less”.
In the case of `CCS(=O)(=O)c1cc(OC(C)(C)C(F)(F)F)cnc1-c1ncc(C(F)C(F)(C(F)(F)F)C(F)(F)F)n1C` (centres unmarked) [b-69], the “insecticidal rate or food intake as compared with the control plot” value (Mythimna separata) is reported as “insecticidal rate of 100% for Mythimna separata or a food intake of 10% or less”.
In the case of `CCS(=O)(=O)c1cc(/C=N/OCC(F)(F)C(F)(F)F)cnc1-c1ncc(C(F)C(F)(F)C(F)(F)F)n1C` (centres unmarked) [c-1], the “insecticidal rate or food intake as compared with the control plot” value (Mythimna separata) is reported as “insecticidal rate of 100% for Mythimna separata or a food intake of 10% or less” and the pest or weed control at 125 ppm (Plutella xylostella) is reported as no less than 80%.
With `CCS(=O)(=O)c1cc(C2CC2)cnc1-c1nnc(C(F)(F)C(F)(F)C(F)(F)C(F)(F)F)n1C` [c-4] the pest or weed control at 125 ppm (Plutella xylostella) was no less than 80%.
With `CCS(=O)(=O)c1cc(-c2ncccn2)cnc1-c1nnc(C(F)(F)C(F)(F)C(F)(F)C(F)(F)F)n1C` [c-5] the “insecticidal rate or food intake as compared with the control plot” value (Mythimna separata) was “insecticidal rate of 100% for Mythimna separata or a food intake of 10% or less” and the pest or weed control at 125 ppm (Plutella xylostella) was no less than 80%.
With `CCS(=O)(=O)c1cc(C2CC2)c[n+]([O-])c1-c1ncc(C(F)C(F)(C(F)(F)F)C(F)(F)F)n1C` (centres unmarked) [c-8] the “insecticidal rate or food intake as compared with the control plot” value (Mythimna separata) was “insecticidal rate of 100% for Mythimna separata or a food intake of 10% or less”.
